Data taken from ChEMBL document CHEMBL3425446, “Isolation, semi-synthesis and bio-evaluation of spatane derivatives from the brown algae Stoechospermum marginatum” (Bioorg Med Chem Lett, 2015).
In brackets after ≈: the same amount, converted by molar mass. Activity calls are given as the source filed them. The rule behind the calls is not given here.

Experiments:
Micrococcus luteus [1] = test: Antibacterial activity against Micrococcus luteus assessed as growth inhibition at 0.5 mg/ml after 24 hrs by well diffusion method; format: functional; conditions: read-out: DIZ
Aspergillus niger = test: Antifungal activity against Aspergillus niger assessed as growth inhibition at 0.5 mg/ml after 48 hrs by well diffusion method; format: functional, organism-based
THP-1 [2] = test: Cytotoxicity against human THP1 cells assessed as decrease in cell number after 24 hrs by MTT assay; format: functional, cell-based; conditions: THP-1, 24 h
Bacillus subtilis [3] = test: Antibacterial activity against Bacillus subtilis assessed as compound concentration required to complete growth inhibition at 8 hrs by tube dilution method; format: functional
[4] = Cytotoxicity against mouse B16F10 cells assessed as decrease in cell number after 24 hrs by MTT assay; format: functional, cell-based; conditions: B16-F10, 24 h
[5] = Cytotoxicity against human U937 cells assessed as decrease in cell number after 24 hrs by MTT assay; format: functional, cell-based; conditions: U-937, 24 h
COLO 205 [6] = test: Cytotoxicity against human COLO205 cells assessed as decrease in cell number after 24 hrs by MTT assay; format: functional, cell-based; conditions: COLO 205, 24 h
Micrococcus luteus [7] = test: Antibacterial activity against Micrococcus luteus assessed as compound concentration required to complete growth inhibition at 8 hrs by tube dilution method; format: functional
Bacillus subtilis [8] = test: Antibacterial activity against Bacillus subtilis assessed as growth inhibition at 0.5 mg/ml after 24 hrs by well diffusion method; format: functional; conditions: read-out: DIZ
Escherichia coli [9] = test: Antibacterial activity against Escherichia coli assessed as growth inhibition at 0.5 mg/ml after 24 hrs by well diffusion method; format: functional; conditions: read-out: DIZ
Klebsiella pneumoniae [10] = test: Antibacterial activity against Klebsiella pneumoniae assessed as compound concentration required to complete growth inhibition at 8 hrs by tube dilution method; format: functional
Klebsiella pneumoniae [11] = test: Antibacterial activity against Klebsiella pneumoniae assessed as growth inhibition at 0.5 mg/ml after 24 hrs by well diffusion method; format: functional; conditions: read-out: DIZ
Aspergillus terreus = test: Antifungal activity against Aspergillus terreus assessed as growth inhibition at 0.5 mg/ml after 48 hrs by well diffusion method; format: functional, organism-based
Escherichia coli [12] = test: Antibacterial activity against Escherichia coli assessed as compound concentration required to complete growth inhibition at 8 hrs by tube dilution method; format: functional
Aspergillus fumigatus = test: Antifungal activity against Aspergillus fumigatus assessed as growth inhibition at 0.5 mg/ml after 48 hrs by well diffusion method; format: functional, organism-based
[13] = Cytotoxicity against human HL60 cells assessed as decrease in cell number after 24 hrs by MTT assay; format: functional, cell-based; conditions: HL-60, 24 h
HL-60 = test: Cytotoxicity against human HL60 cells assessed as growth inhibition at 200 ug/ml after 24 hrs by MTT assay; format: functional, cell-based
B16-F10 = test: Cytotoxicity against mouse B16F10 cells assessed as growth inhibition at 200 ug/ml after 24 hrs by MTT assay; format: functional, cell-based
U-937 = test: Cytotoxicity against human U937 cells assessed as growth inhibition at 200 ug/ml after 24 hrs by MTT assay; format: functional, cell-based
COLO 205 [14] = test: Cytotoxicity against human COLO205 cells assessed as growth inhibition at 200 ug/ml after 24 hrs by MTT assay; format: functional, cell-based
THP-1 [15] = test: Cytotoxicity against human THP1 cells assessed as growth inhibition at 200 ug/ml after 24 hrs by MTT assay; format: functional, cell-based

| MIC (Bacillus subtilis [3]) [µg/mL] | MIC (Micrococcus luteus [7]) [µg/mL] | MIC (Klebsiella pneumoniae [10]) [µg/mL] | MIC (Escherichia coli [12]) [µg/mL] | SMILES | zone of inhibition at 500 µg/mL (Micrococcus luteus [1]) [mm] | zone of inhibition (Aspergillus niger) [mm] | IC50 (THP-1 [2]) [µg/mL] | IC50 [4] [µg/mL] | IC50 [5] [µg/mL] | IC50 (COLO 205 [6]) [µg/mL] | zone of inhibition at 500 µg/mL (Bacillus subtilis [8]) [mm] | zone of inhibition at 500 µg/mL (Escherichia coli [9]) [mm] | zone of inhibition at 500 µg/mL (Klebsiella pneumoniae [11]) [mm] | zone of inhibition (Aspergillus terreus) [mm] | zone of inhibition (Aspergillus fumigatus) [mm] | growth inhibition (GI) (HL-60) | other results |
| --- | --- | --- | --- | --- | --- | --- | --- | --- | --- | --- | --- | --- | --- | --- | --- | --- | --- |
| 50 (≈ 166 µM) | 50 (≈ 166 µM) | 50 (≈ 166 µM) | 50 (≈ 166 µM) | C=C(C(=O)/C=C/C(C)=O)[C@@H]1CC(=O)[C@@]2(C)[C@@H]1[C@@H]1[C@H](C)CC[C@@H]12 | 0 | 19.3 | 18.1 (≈ 60.3 µM) | 3.62 (≈ 12.1 µM) | 7.52 (≈ 25 µM) | 32 (≈ 107 µM) | 10.3 | 11 | 11.3 | 19.3 | 22 | – | IC50 [13]: 48.4 µg/mL (≈ 161 µM) |
| 400 (≈ 1330 µM) | 200 (≈ 666 µM) | 200 (≈ 666 µM) | 200 (≈ 666 µM) | C=C(CC(=O)C=C(C)C)[C@@H]1CC(=O)[C@@]2(C)[C@@H]1[C@@H]1[C@H](C)CC[C@@H]12 | 11.3 | – | 113 (≈ 377 µM) | – | 47.5 (≈ 158 µM) | 167 (≈ 557 µM) | 0 | 10 | 12.7 | – | – | inactive | growth inhibition (GI) (B16-F10): inactive |
| 200 | 200 | 200 | 200 | C=C(C(O)/C=C/C(C)(O)CO)[C@@H]1C[C@@H](O)[C@@]2(C)[C@@H]1[C@@H]1[C@H](C)CC[C@@H]12 (mixture of isomers) | 12.3 | – | 55.6 | 196 | – | 17.4 | 12.7 | 11.7 | 12.3 | – | – | inactive | growth inhibition (GI) (U-937): inactive |
| 200 | 400 | 200 | 200 | C=C(C(O)/C=C/C(C)(O)COC(C)=O)[C@@H]1C[C@@H](O)[C@@]2(C)[C@@H]1[C@@H]1[C@H](C)CC[C@@H]12 (mixture of isomers) | 12 | – | 67 | 99.8 | 144 | – | 10.3 | 13 | 12.3 | – | – | inactive | growth inhibition (GI) (COLO 205 [14]): inactive |
| 100 | 100 | 200 | 100 | C=C(C(/C=C/C(C)(O)COC(C)=O)OC(C)=O)[C@@H]1C[C@@H](O)[C@@]2(C)[C@@H]1[C@@H]1[C@H](C)CC[C@@H]12 (mixture of isomers) | 12.3 | – | – | 82 | – | – | 11.7 | 14.3 | 12.7 | – | – | inactive | growth inhibition (GI) (COLO 205 [14]): inactive; growth inhibition (GI) (U-937): inactive; growth inhibition (GI) (THP-1 [15]): inactive |
| – | – | – | – | C[C@@H]1C[C@@H]([C@H](O)CC2CC(=O)NC(=O)C2)C(=O)[C@@H](C)C1 [CYCLOHEXIMIDE] | – | 17.7 | – | – | – | – | – | – | – | 15.7 | 16.3 | – | – |
| – | – | – | – | CC(=O)N1CCN(c2ccc(OCC3COC(Cn4ccnc4)(c4ccc(Cl)cc4Cl)O3)cc2)CC1 (centres undefined) [KETOCONAZOLE] | – | 22.7 | – | – | – | – | – | – | – | 20 | 20.7 | – | – |
